Assay results as given in patent US8193191B2, “Urotensin II receptor antagonists” (Janssen Pharmaceutica N.V., priority 2006, dated 2012).

Experiments:
[1] = target: T1, rat GPR14 (U-II receptor) (Rattus norvegicus, UniProt P49684); assay: Rat UII Calcium Mobilization FLIPR Assay; format: cell-based; details: average value for the compound tested; read-out: Rat UII FLIPR Average IC50
T1 construct: expressed in transfected cells
T1 sequence (P49684 1-386): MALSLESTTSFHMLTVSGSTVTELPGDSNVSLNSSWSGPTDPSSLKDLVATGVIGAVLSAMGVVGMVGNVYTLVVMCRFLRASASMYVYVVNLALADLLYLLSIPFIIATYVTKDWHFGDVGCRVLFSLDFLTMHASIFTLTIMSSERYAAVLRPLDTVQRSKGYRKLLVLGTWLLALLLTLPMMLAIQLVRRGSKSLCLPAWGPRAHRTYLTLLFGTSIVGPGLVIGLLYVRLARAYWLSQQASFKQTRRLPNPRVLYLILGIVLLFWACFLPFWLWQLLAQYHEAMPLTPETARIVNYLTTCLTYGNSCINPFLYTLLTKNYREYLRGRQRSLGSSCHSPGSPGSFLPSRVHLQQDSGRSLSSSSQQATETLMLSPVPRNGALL
Procedure, shortened: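 CHO cells stably expressing rat U-II receptor, seeded 24 h before assay, were loaded with FLIPR calcium dye in HBSS/20 mM HEPES/0.1% BSA/2.5 mM probenecid, pH 7.4, for 1 h at 37° C. Calcium mobilization then read by FLIPR at 23° C.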

[2] = target: T2, Human UII receptor, 6D9 human rhabdomyosarcoma cells (Homo sapiens, UniProt Q9UKP6); assay: Human UII Calcium Mobilization Assay; format: cell-based; details: average value, FLIPR TETRA, read-out: Human UII Ca^+ Mobilization Average IC50
T2 construct: 6D9: isolated by dilution subcloning of RMS13 cells, ATCC® Number: CRL-2061; host or cells: 6D9 human rhabdomyosarcoma cells (subclone of RMS13)
T2 sequence (Q9UKP6 1-389): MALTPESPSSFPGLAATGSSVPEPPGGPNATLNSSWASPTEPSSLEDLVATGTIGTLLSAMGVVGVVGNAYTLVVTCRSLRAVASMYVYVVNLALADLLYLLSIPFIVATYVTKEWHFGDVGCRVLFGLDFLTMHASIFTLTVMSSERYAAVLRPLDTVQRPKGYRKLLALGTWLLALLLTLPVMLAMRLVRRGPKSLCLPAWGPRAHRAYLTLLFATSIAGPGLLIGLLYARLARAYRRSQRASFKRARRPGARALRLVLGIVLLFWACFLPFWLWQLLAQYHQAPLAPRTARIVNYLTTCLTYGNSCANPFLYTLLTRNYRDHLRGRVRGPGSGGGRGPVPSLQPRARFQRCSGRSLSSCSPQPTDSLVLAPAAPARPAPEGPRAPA
Description: 6D9 human rhabdomyosarcoma cells were seeded into tissue culture treated 384-well black-walled clear bottom plates (3712, Corning Incorporated, Corning, N.Y.) at 8,000 cells/well in 25 μL of culture medium, and maintained in an incubator (5% CO2 at 37° C.) for 22 hrs prior to the calcium mobilization assay. 25 μL of dye solution was added to the wells such that the final liquid volume before agonist/antagonist treatment was 50 μL for all assays. The cell plates were incubated at 37° C. for 45 minutes and the fluorescence intensity was measured on a Fluorometric Imaging Plate Reader (FLIPR^TETRA, Molecular Devices, Sunnyvale, Calif.).
Antagonist and agonist U-II were added at room temperature on the FLIPR^TETRA, and the fluorescence intensity before and after addition was measured over a period of 4 minutes. The dye incubation time and temperature as well as instrument setting was adjusted so the fluorescence intensity could be compared between plates on the same day. EC50 and IC50 were analyzed using GraphPad Prism 4 software (GraphPad Software Inc., San Diego, Calif.).
Materials and reagent Preparation: Human Rhabdomyosarcoma cells (6D9: isolated by dilution subcloning of RMS13 cells, ATCC® Number: CRL-2061, American Type Culture Collection ATCC, Manassas, Va.) was maintained in RPMI-1640 medium (30-2001, ATCC, Manassas, Va.) supplemented with 10% (v/v) Fetal Bovine Serum (SH30071.03, Hyclone, Logan, Utah).
Dye preparation: BD™ Calcium Assay Kit (80500-301, BD Biosciences, Rockville, Md.) was prepared according to the manufacture's instruction in 1× Hanks' balanced salt solution (HBSS, 21-023-CV, Mediatech, Inc. Herndon, Va.) containing 20 mM HEPES buffer (25-060-CI, Mediatech, Inc. Herndon, Va.). Final dye loading conditions included 1.25 mM probenecid (P36400, Invitrogen, Carlsbad, Calif.) and 0.01% FBS.
Urantide (PUT-3639-PI, Peptide International, Louisville, Ky.) was prepared in water at 5 mM. For assays, U-II agonist, U-II antagonist and urantide were diluted with HBSS/HEPES containing 0.01% FBS.
Test compounds were dissolved in DMSO at 10 mM concentration. The serial dilutions were carried out in HBSS/HEPES. The highest final DMSO concentration was at 0.1%.

[3] = target: T3, endogenous human UII receptor (Homo sapiens, UniProt Q9UKP6); assay: Human Radioligand Binding Assay ((^125I)-U-II binding to human skeletal muscle myoblasts)
T3 sequence (Q9UKP6 1-389): T2 sequence (Q9UKP6 1-389)

Compound | IC50 [1] | IC50 [2] | Ki [3]
COC(=O)c1csc(S(=O)(=O)NCCCC(c2ccc(OC)c(OC)c2)N2C(=O)c3cccc(N4CCN([C@H](C)c5ccccc5)CC4)c3C2=O)c1OC (stereo partly drawn) [Cpd 88, 5-(4-(3,4-dimethoxy-phenyl)-4-{1,3-dioxo-4-[4-(1R)-(1-phenyl-ethyl)-piperazin-1-yl]-1,3-dihydro-isoindol-2-yl}-butylsulfamoyl)-4-methoxy-thiophene-3-carboxylic acid methyl ester] | 320 nM | > 3000 nM | 350 nM
COc1ccc(C(CCCNS(=O)(=O)c2cc(C)oc2C(F)(F)F)N2C(=O)c3cccc(N4CCN([C@H](C)c5ccccc5)CC4)c3C2=O)cc1OC (stereo partly drawn) [Cpd 89, 5-methyl-2-trifluoromethyl-furan-3-sulfonic acid (4-(3,4-dimethoxy-phenyl)-4-{1,3-dioxo-4-[4-(1R)-(1-phenyl-ethyl)-piperazin-1-yl]-1,3-dihydro-isoindol-2-yl}-butyl)-amide] | 540 nM | > 10000 nM | 890 nM
COC(=O)c1ccc(S(=O)(=O)NCCCC(c2ccc(OC)c(OC)c2)N2C(=O)c3cccc(N4CCN([C@H](C)c5ccccc5)CC4)c3C2=O)o1 (stereo partly drawn) [Cpd 90, 5-(4-(3,4-dimethoxy-phenyl)-4-{1,3-dioxo-4-[4-(1R)-(1-phenyl-ethyl)-piperazin-1-yl]-1,3-dihydro-isoindol-2-yl}-butylsulfamoyl)-furan-2-carboxylic acid methyl ester] | 130 nM | 560 nM | 320 nM
COc1ccc(C(CCCNS(=O)(=O)c2c(C)nn(C)c2C)N2C(=O)c3cccc(N4CCN([C@H](C)c5ccccc5)CC4)c3C2=O)cc1OC (stereo partly drawn) [Cpd 91, 1,3,5-trimethyl-1H-pyrazole-4-sulfonic acid (4-(3,4-dimethoxy-phenyl)-4-{1,3-dioxo-4-[4-(1R)-(1-phenyl-ethyl)-piperazin-1-yl]-1,3-dihydro-isoindol-2-yl}-butyl)-amide] | 15 nM | 310 nM | 150 nM
COc1ccc(C(CCCNS(=O)(=O)c2c(Cl)nc3sccn23)N2C(=O)c3cccc(N4CCN([C@H](C)c5ccccc5)CC4)c3C2=O)cc1OC (stereo partly drawn) [Cpd 93, 6-chloro-imidazo[2,1-b]thiazole-5-sulfonic acid (4-(3,4-dimethoxy-phenyl)-4-{1,3-dioxo-4-[4-(1R)-(1-phenyl-ethyl)-piperazin-1-yl]-1,3-dihydro-isoindol-2-yl}-butyl)-amide] | 180 nM | > 3000 nM | 460 nM
COC(=O)c1sccc1S(=O)(=O)NCCCC(c1ccc(OC)c(OC)c1)N1C(=O)c2cccc(N3CCN([C@H](C)c4ccccc4)CC3)c2C1=O (stereo partly drawn) [Cpd 94, 3-(4-(3,4-dimethoxy-phenyl)-4-{1,3-dioxo-4-[4-(1R)-(1-phenyl-ethyl)-piperazin-1-yl]-1,3-dihydro-isoindol-2-yl}-butylsulfamoyl)-thiophene-2-carboxylic acid methyl ester] | 65 nM | 430 nM | 42 nM
COc1ccc(C(CCCNS(=O)(=O)c2ccc(-c3ccon3)s2)N2C(=O)c3cccc(N4CCN([C@H](C)c5ccccc5)CC4)c3C2=O)cc1OC (stereo partly drawn) [Cpd 95, 5-isoxazol-3-yl-thiophene-2-sulfonic acid (4-(3,4-dimethoxy-phenyl)-4-{1,3-dioxo-4-[4-(1R)-(1-phenyl-ethyl)-piperazin-1-yl]-1,3-dihydro-isoindol-2-yl}-butyl)-amide] | 89 nM | 200 nM | 110 nM
COc1ccc(C(CCCNS(=O)(=O)c2ccccc2)N2C(=O)c3cccc(N4CCN([C@H](C)c5ccccc5)CC4)c3C2=O)cc1OC (stereo partly drawn) [Cpd 96, N-(4-(3,4-dimethoxy-phenyl)-4-{1,3-dioxo-4-[4-(1R)-(1-phenyl-ethyl)-piperazin-1-yl]-1,3-dihydro-isoindol-2-yl}-butyl)-benzenesulfonamide] | 97 nM | 760 nM | 97 nM
COc1ccc(C(CCCNS(=O)(=O)c2sc(NC(C)=O)nc2C)N2C(=O)c3cccc(N4CCN([C@H](C)c5ccccc5)CC4)c3C2=O)cc1OC (stereo partly drawn) [Cpd 97, N-[5-(4-(3,4-dimethoxy-phenyl)-4-{1,3-dioxo-4-[4-(1R)-(1-phenyl-ethyl)-piperazin-1-yl]-1,3-dihydro-isoindol-2-yl}-butylsulfamoyl)-4-methyl-thiazol-2-yl]-acetamide] | 63 nM | 700 nM | 180 nM
COc1ccc(C(CCCNS(=O)(=O)c2cn(C)cn2)N2C(=O)c3cccc(N4CCN([C@H](C)c5ccccc5)CC4)c3C2=O)cc1OC (stereo partly drawn) [Cpd 98, 1-methyl-1H-imidazole-4-sulfonic acid (4-(3,4-dimethoxy-phenyl)-4-{1,3-dioxo-4-[4-(1R)-(1-phenyl-ethyl)-piperazin-1-yl]-1,3-dihydro-isoindol-2-yl}-butyl)-amide] | 18 nM | 350 nM | 42 nM
COc1ccc(C(CCCNS(=O)(=O)c2cc(C)oc2C)N2C(=O)c3cccc(N4CCN([C@H](C)c5ccccc5)CC4)c3C2=O)cc1OC (stereo partly drawn) [Cpd 99, 2,5-dimethyl-furan-3-sulfonic acid (4-(3,4-dimethoxy-phenyl)-4-{1,3-dioxo-4-[4-(1R)-(1-phenyl-ethyl)-piperazin-1-yl]-1,3-dihydro-isoindol-2-yl}-butyl)-amide] | 170 nM | 2700 nM | 620 nM
COc1ccc(C(CCCNS(=O)(=O)c2c(C)nn(C)c2Cl)N2C(=O)c3cccc(N4CCN([C@H](C)c5ccccc5)CC4)c3C2=O)cc1OC (stereo partly drawn) [Cpd 101, 5-chloro-1,3-dimethyl-1H-pyrazole-4-sulfonic acid (4-(3,4-dimethoxy-phenyl)-4-{1,3-dioxo-4-[4-(1R)-(1-phenyl-ethyl)-piperazin-1-yl]-1,3-dihydro-isoindol-2-yl}-butyl)-amide] | 30 nM | 300 nM | 120 nM
CCN1CCN(c2cccc3c2C(=O)N([C@H](CCCOS(=O)(=O)c2cccs2)c2ccc(OC)c(OC)c2)C3=O)CC1 [Cpd 208, (R)-thiophene-2-sulfonic acid 4-(3,4-dimethoxy-phenyl)-4-[4-(4-ethyl-piperazin-1-yl)-1,3-dioxo-1,3-dihydro-isoindol-2-yl]-butyl ester] | 320 nM | 4500 nM | 
CCN1CCN(c2cccc3c2C(=O)N([C@H](CCCOS(=O)(=O)N(C)C)c2ccc(OC)c(OC)c2)C3=O)CC1 [Cpd 209, (R)-dimethyl-sulfamic acid 4-(3,4-dimethoxy-phenyl)-4-[4-(4-ethyl-piperazin-1-yl)-1,3-dioxo-1,3-dihydro-isoindol-2-yl]-butyl ester] |  | 3800 nM | 290 nM
